Laboratory results from the supplement of paper PMC11451515.

Tests used:
SEM cells [1] = test: AUC of viability dose-response curve (% viability x log10 dose units); higher = less sensitive; conditions: 48 h
How it was run: (§1)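 Leukemia cells adapted to each medium were seeded in 1536-well plates (500 or 1000 cells/well) and given library compounds in DMSO for 48 h at 37°C. The 11 threefold doses spanned 47 μM to 0.79 nM, and CellTiter-Glo One luminescence was normalised per plate to DMSO and cell-free wells before four-parameter log-logistic fitting on log10 dose. Area under the curve was integrated with the trapezoidal rule, scaling curves above full viability and removing curves that failed quality control.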

P12-Ichikawa [2] = test: as above; conditions: 48 h
How it was run: as §1

NOMO1 = test: as above; conditions: 48 h
How it was run: as §1

SEM cells [3] = test: cell viability relative to DMSO control; higher = less cytotoxic; conditions: 48 h
How it was run: (§2)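 Viability is expressed as a percentage of DMSO wells within each plate, and cell-free wells serve as background. Seeding densities in the 1536-well plates (5 μl) were 500 cells/well for NOMO1 or SEM leukemia cells and 1000 cells/well for P12-Ichikawa. Each line was adapted for at least four passages in each medium. Library compounds in DMSO were pin-dosed at 47 μM to 0.79 nM (11 points, threefold), and CellTiter-Glo One luminescence was read after 48 h at 37°C.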

P12-Ichikawa [4] = test: as above; conditions: RPMI 5 mM glucose + 10% FBS, 48 h
How it was run: as §2

CCC(c1ccc(O)cc1)C(CC)c1ccc(O)cc1 (stereo not given)
AUC of viability dose-response curve
Conditions	NOMO1	P12-Ichikawa [2]	SEM cells [1]
HPLM + 10% dialyzed FBS	428	452	459
RPMI 5 mM glucose + 10% FBS	448	464	457
RPMI 5 mM glucose + 10% dialyzed FBS	463	466	466

CN[C@@H]1CN(C[C@H]1OC)C2=NC3=C(C=C2)C(=O)C(=C\N3C4=NC=CS4)/C(O)=O
AUC of viability dose-response curve
Conditions	NOMO1	P12-Ichikawa [2]	SEM cells [1]
HPLM + 10% dialyzed FBS	454	426	396
RPMI 5 mM glucose + 10% FBS	455	386	347
RPMI 5 mM glucose + 10% dialyzed FBS	451	389	363

CC(C)(C)C1=NC2=C([NH]1)C3=CC=C(F)C=C3C4=C2\C=C/NC4=O
Conditions	AUC of viability dose-response curve	cell viability [%]
NOMO1, HPLM + 10% dialyzed FBS	415	–
NOMO1, RPMI 5 mM glucose + 10% FBS	412	–
NOMO1, RPMI 5 mM glucose + 10% dialyzed FBS	408	–
P12-Ichikawa [2], HPLM + 10% dialyzed FBS	391	–
P12-Ichikawa [2], RPMI 5 mM glucose + 10% FBS	404	–
P12-Ichikawa [2], RPMI 5 mM glucose + 10% dialyzed FBS	408	–
P12-Ichikawa [4], 0.000781 µM	–	118
P12-Ichikawa [4], 0.00234 µM	–	133
P12-Ichikawa [4], 0.00702 µM	–	123
P12-Ichikawa [4], 0.0211 µM	–	134
P12-Ichikawa [4], 0.0632 µM	–	123
P12-Ichikawa [4], 0.19 µM	–	122
P12-Ichikawa [4], 0.569 µM	–	113
P12-Ichikawa [4], 1.71 µM	–	108
P12-Ichikawa [4], 5.12 µM	–	69.7
P12-Ichikawa [4], 15.4 µM	–	17.8
P12-Ichikawa [4], 46.1 µM	–	72.1
SEM cells [1], HPLM + 10% dialyzed FBS	384	–
SEM cells [1], RPMI 5 mM glucose + 10% FBS	378	–
SEM cells [1], RPMI 5 mM glucose + 10% dialyzed FBS	384	–

cell viability [%], SEM cells [3]
Conditions	HPLM + 10% dialyzed FBS	RPMI 5 mM glucose + 10% FBS
0.000781 µM	118	96.8
0.00234 µM	114	116
0.00702 µM	130	141
0.0211 µM	130	115
0.0632 µM	125	126
0.19 µM	116	138
0.569 µM	111	114
1.71 µM	89	98.6
5.12 µM	38.8	37.2
15.4 µM	32.1	18.1
46.1 µM	50.1	32.3
